Experimental findings from PubChem BioAssay (NCI) are described below.

Where “and” joins values, the source holds several entries; their conditions need not be identical. Equal values may be shown once.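 Growth conditions: 96-well plates. Treatment: test compound, 48 hours, 5 concentrations. Analysis: linear interpolation between bracketing concentrations; unreached endpoints set to highest concentration. GI50 is the concentration that inhibits growth by half. TGI is the concentration that stops growth completely.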 Bounds are passed on as bounds.

Test systems include HCC-2998 colon; NCI-H460 lung; OVCAR-5 ovarian; SK-OV-3 ovarian; NCI-H226 lung; COLO 205 colon; UACC-257 melanoma; UACC-62 melanoma; MALME-3M melanoma; SR leukemia.
Common to all, as to assay: inhibition of tumour cell growth, NCI panel, 48 h

Turning to `c1ccc2c(c1)nc(NCCN1CCNCC1)c1c3ccccc3[nH]c21`, the GI50 is 425 nM in the test with HCC-2998 colon; 221 nM in the test on NCI-H460 lung; 0.477 µM in the test on OVCAR-5 ovarian; 2160 nM with SK-OV-3 ovarian; 1200 nM in the test on NCI-H226 lung; 346 nM in the test on COLO 205 colon. Also, the GI50 in the test with UACC-257 melanoma is 1710 nM; in the test with UACC-62 melanoma, 1760 nM; with MALME-3M melanoma, 1790 nM; with SR leukemia, 226 nM. In addition, the TGI in the test with HCC-2998 colon worked out at 1.68 µM; with NCI-H460 lung, 1.14 µM; in the test with OVCAR-5 ovarian, 3.15 µM; in the test on SK-OV-3 ovarian it was 8.53 µM; in the test on NCI-H226 lung, 3.91 µM; in the test on COLO 205 colon, 1.87 µM. Also, the TGI turned out to be 3.27 µM in the test with UACC-257 melanoma, 3.69 µM in the test with UACC-62 melanoma, 3.82 µM with MALME-3M melanoma and 1.33 µM in the test on SR leukemia.
With `COc1ccc2c(c1O)[C@@]13C=C(O)C(=O)C=C1[C@@H](C2)N(C)CC3`, the TGI with HCC-2998 colon, in the test on NCI-H460 lung, in the test with OVCAR-5 ovarian, with SK-OV-3 ovarian, in the test on NCI-H226 lung and in the test with COLO 205 colon was greater than 100 µM each time. Further, the TGI with UACC-257 melanoma, with UACC-62 melanoma, in the test with MALME-3M melanoma and with SR leukemia was greater than 100 µM throughout.
As to `Cc1cc(CS(=O)(=O)/C=C/c2ccccc2[N+](=O)[O-])c(CS(=O)(=O)/C=C/c2ccccc2[N+](=O)[O-])cc1C`, the TGI with HCC-2998 colon is greater than 100 µM; in the test on NCI-H460 lung, greater than 100 µM; in the test on OVCAR-5 ovarian, greater than 100 µM; in the test with SK-OV-3 ovarian, 37.5 µM; with NCI-H226 lung it was 59.4 µM; in the test with COLO 205 colon, greater than 100 µM. The TGI in the test on UACC-257 melanoma, in the test with UACC-62 melanoma, in the test with MALME-3M melanoma and in the test with SR leukemia was greater than 100 µM throughout.
For the compound `N#CC1c2ccccc2-c2ccccc2N1C(=O)c1ccccc1` (configuration not stated), the GI50 in the test with HCC-2998 colon was 2720 nM; in the test on NCI-H460 lung it was 3060 nM; in the test on OVCAR-5 ovarian, 5.37 µM; with SK-OV-3 ovarian, 4360 nM; with NCI-H226 lung, 3110 nM; in the test on COLO 205 colon, 1560 nM. Also, the GI50 is 5320 nM with UACC-257 melanoma, 1900 nM in the test on UACC-62 melanoma, 1220 nM in the test on MALME-3M melanoma and 2920 nM in the test with SR leukemia. Moreover, the TGI is 22.2 µM in the test with HCC-2998 colon; 10.9 µM in the test on NCI-H460 lung; greater than 100 µM in the test with OVCAR-5 ovarian; greater than 45.2 µM in the test with SK-OV-3 ovarian; greater than 100 µM in the test on NCI-H226 lung; 3.67 µM with COLO 205 colon. For the same compound, the TGI in the test with UACC-257 melanoma is greater than 54.5 µM; with UACC-62 melanoma, greater than 38.5 µM; in the test on MALME-3M melanoma, 54.2 µM.
For `COc1cc2oc3ccccc3c(=O)c2cc1CSc1ccccc1N`, the TGI in the test on HCC-2998 colon is 29.3 µM; in the test with NCI-H460 lung, greater than 100 µM; in the test on OVCAR-5 ovarian, greater than 100 µM; with SK-OV-3 ovarian, greater than 100 µM; with NCI-H226 lung it was greater than 100 µM; in the test on COLO 205 colon it was greater than 95.6 µM. The TGI was greater than 100 µM in the test with UACC-257 melanoma, greater than 66.9 µM in the test on UACC-62 melanoma, greater than 79.5 µM with MALME-3M melanoma and 28.3 µM in the test with SR leukemia.
On to `CCCC/C(=N\N=C(N)N)c1ccc(F)cc1`, for which the GI50 in the test with HCC-2998 colon was 2770 nM; in the test with NCI-H460 lung it was 3900 nM; with OVCAR-5 ovarian, 5.08 µM; with SK-OV-3 ovarian, 2610 nM; in the test on NCI-H226 lung, 2780 nM; in the test with COLO 205 colon it was 1780 nM. Moreover, the GI50 with UACC-257 melanoma was 4400 nM; in the test with UACC-62 melanoma, 3140 nM; with MALME-3M melanoma, 4130 nM; with SR leukemia, 481 nM. Also, the TGI turned out to be 11 µM with HCC-2998 colon; 14.7 µM in the test with NCI-H460 lung; 17.8 µM in the test on OVCAR-5 ovarian; 11 µM in the test with SK-OV-3 ovarian; 13.3 µM in the test with NCI-H226 lung; 3.41 µM in the test with COLO 205 colon. Moreover, the TGI with UACC-257 melanoma came to 13.9 µM; in the test with UACC-62 melanoma, 14.8 µM; in the test with MALME-3M melanoma, 18.5 µM; in the test on SR leukemia, 11.9 µM.
With `O=C1c2c(O)cccc2C(C(=O)CCCCC(=O)C2c3cccc(O)c3C(=O)c3c(O)cccc32)c2cccc(O)c21`, the GI50 in the test with HCC-2998 colon is 1070 nM; with OVCAR-5 ovarian it was 0.961 µM; in the test with SK-OV-3 ovarian, 921 nM; with NCI-H226 lung it was 1100 nM; with COLO 205 colon, 1020 nM; with UACC-257 melanoma it was 1380 nM. Also, the GI50 with UACC-62 melanoma is 1620 nM; in the test with SR leukemia it was 1410 nM. In addition, the TGI is 2.63 µM and 3.14 µM with HCC-2998 colon; 1.35 µM and 1.65 µM with NCI-H460 lung; 1.22 µM and 1.85 µM in the test on OVCAR-5 ovarian; 1.14 µM and 1.75 µM in the test with SK-OV-3 ovarian; 2.27 µM and 2.89 µM in the test with NCI-H226 lung; 3.36 µM and 2.21 µM with COLO 205 colon. For the same compound, the TGI in the test with UACC-257 melanoma was 1.34 µM and 2.96 µM; in the test with UACC-62 melanoma it was 2.48 µM and 5.78 µM; with MALME-3M melanoma, 4.38 µM and 2.92 µM; in the test on SR leukemia, 25 µM and 2.87 µM.
On to `CN1C(=O)c2cc(Cl)nc3c(NC(=O)c4cccc(Cl)c4)c(Cl)c(NC(=O)c4cccc(Cl)c4)c1c23`, for which the GI50 with HCC-2998 colon is 1760 nM; with NCI-H460 lung it was 2340 nM; in the test with OVCAR-5 ovarian, 12.8 µM; in the test on SK-OV-3 ovarian, 4980 nM; in the test with NCI-H226 lung it was 2020 nM; in the test on COLO 205 colon it was 1940 nM. For the same compound, the GI50 in the test on UACC-257 melanoma is 1910 nM; in the test on UACC-62 melanoma it was 1920 nM; with MALME-3M melanoma, 1660 nM; in the test on SR leukemia, 580 nM. The TGI is 3.41 µM with HCC-2998 colon; 5.17 µM in the test with NCI-H460 lung; 30.1 µM in the test with OVCAR-5 ovarian; 17.4 µM with SK-OV-3 ovarian; 4.05 µM with NCI-H226 lung; 4.01 µM in the test with COLO 205 colon. The TGI with UACC-257 melanoma amounted to 3.55 µM; in the test on UACC-62 melanoma it was 3.76 µM; with MALME-3M melanoma, 3.44 µM; in the test with SR leukemia, 2.95 µM.
In the case of `COC(=O)c1cc(Nc2ccc(O)c3c2C(=O)c2c([N+](=O)[O-])ccc(O)c2C3=O)cc(C(=O)OC)c1`, the GI50 is 4390 nM with HCC-2998 colon; 3320 nM in the test with NCI-H460 lung; 26 µM in the test with OVCAR-5 ovarian; greater than 100000 nM in the test with SK-OV-3 ovarian; 20100 nM in the test on NCI-H226 lung; 2380 nM in the test with COLO 205 colon. Moreover, the GI50 in the test with UACC-257 melanoma is 3230 nM; with UACC-62 melanoma, 4630 nM; in the test on MALME-3M melanoma, 2750 nM; with SR leukemia, 3190 nM. Besides, the TGI was greater than 100 µM in the test with HCC-2998 colon; 18.9 µM in the test on NCI-H460 lung; greater than 100 µM in the test with OVCAR-5 ovarian; greater than 100 µM in the test on SK-OV-3 ovarian; greater than 100 µM in the test on NCI-H226 lung; 5.56 µM in the test with COLO 205 colon. The TGI in the test with UACC-257 melanoma is greater than 100 µM; with UACC-62 melanoma, greater than 100 µM; in the test with MALME-3M melanoma, 6.39 µM; in the test on SR leukemia, 42.6 µM.
On to `COc1cc[nH]c1/C=C1\C(=O)Nc2ccc(F)c(C#CC3(O)CCOCC3)c21`, for which the GI50 is 676 nM with HCC-2998 colon; 637 nM in the test with NCI-H460 lung; 0.714 µM with OVCAR-5 ovarian; 441 nM with SK-OV-3 ovarian; 498 nM with NCI-H226 lung; 408 nM with COLO 205 colon. Besides, the GI50 in the test on UACC-257 melanoma was 749 nM; in the test on UACC-62 melanoma it was 375 nM; in the test with MALME-3M melanoma, 1220 nM; with SR leukemia it was 447 nM. The TGI in the test on HCC-2998 colon is 2.59 µM; with NCI-H460 lung, 2.7 µM; in the test with OVCAR-5 ovarian, greater than 7.16 µM; in the test with SK-OV-3 ovarian, greater than 25 µM; in the test on NCI-H226 lung, 2.2 µM; with COLO 205 colon it was 1.13 µM. Also, the TGI with UACC-257 melanoma was found to be 2.76 µM; in the test with UACC-62 melanoma it was 0.929 µM; with MALME-3M melanoma it was 5.81 µM; in the test on SR leukemia, 2.75 µM.
For `COc1ccc(S(=O)(=O)N/N=C/C(=O)O)cc1`, the TGI with HCC-2998 colon was greater than 1250 µM; in the test on NCI-H460 lung, greater than 1230 µM; in the test with OVCAR-5 ovarian it was greater than 1150 µM; in the test with SK-OV-3 ovarian, greater than 1250 µM; with NCI-H226 lung, greater than 1220 µM; with COLO 205 colon, greater than 1250 µM. Also, the TGI in the test with UACC-257 melanoma was greater than 1250 µM; with UACC-62 melanoma, 984 µM; in the test with MALME-3M melanoma, greater than 1250 µM; in the test on SR leukemia, 603 µM.
Turning to `CC1=C(C#N)C(N)=C2C(C)=C(C#N)C(N)=C12`, the TGI in the test on HCC-2998 colon, in the test on NCI-H460 lung, in the test on OVCAR-5 ovarian, in the test with SK-OV-3 ovarian, in the test with NCI-H226 lung and in the test on COLO 205 colon was greater than 100 µM throughout. The TGI in the test on UACC-257 melanoma, with UACC-62 melanoma, in the test with MALME-3M melanoma and in the test on SR leukemia was greater than 100 µM throughout.
Turning to `COC(=O)[C@H](Cc1ccccc1)NC(=O)c1csc([C@@H](C[C@H](C(C)C)N(C)C(=O)[C@@H](NC(=O)[C@H]2CCCCN2C)C2CC2)OC(C)=O)n1`, the GI50 is 162 nM with HCC-2998 colon; 54.6 nM with NCI-H460 lung; 0.316 µM in the test with OVCAR-5 ovarian; 121 nM in the test on SK-OV-3 ovarian; 2590 nM with NCI-H226 lung; 48 nM with COLO 205 colon. Moreover, the GI50 with UACC-257 melanoma is greater than 10700 nM; in the test on UACC-62 melanoma, 247 nM; in the test with MALME-3M melanoma it was 2160 nM; in the test on SR leukemia it was 5.63 nM. Moreover, the TGI in the test on HCC-2998 colon is greater than 25 µM; with NCI-H460 lung, greater than 25 µM; in the test on OVCAR-5 ovarian it was greater than 25 µM; in the test on SK-OV-3 ovarian it was greater than 25 µM; in the test with NCI-H226 lung it was greater than 25 µM; with COLO 205 colon, 0.362 µM. Besides, the TGI in the test on UACC-257 melanoma, in the test on UACC-62 melanoma, in the test on MALME-3M melanoma and in the test on SR leukemia was greater than 25 µM each time.
